Values quoted from earlier work as cited in PubChem BioAssay AID1259409 (Chemical Carcinogenesis Research Information System (CCRIS), 2018).

Test system: rodent chemically induced tumor inhibition, incidence and multiplicity
Experiment: CCRIS tumor inhibitor studies
Details: Dose [Inhibitor]: 0, Route [Inhibitor]: ORAL, Promoter: NONE USED

SMILES: Cc1c(-c2cnccn2)ssc1=S
- tumour outcome (control, treated, inhibition, significance) (Carcinogen: 2-AMINO-1-METHYL-6-PHENYLIMIDAZO[4,5-B]PYRIDINE, 105650-23-5, 200 PPM IN DIET FOR 52 WK (STUDY DURATION: 52 WK), Species: RAT, Strain/Sex: F344/MALE, Target Tissue: Type of Lesion: LYMPHATIC SYSTEM: LYMPHOMA, Dose [Carcinogen]: 400 PPM IN DIET FOR 10 WK THEN 200 PPM TO WK 14 FOLLOWED BY 100 PPM FOR DURATION OF STUDY): 75%, 6%, 92%, not calculated
- tumour outcome (control, treated, inhibition, significance) (Carcinogen: 2-AMINO-1-METHYL-6-PHENYLIMIDAZO[4,5-B]PYRIDINE, 105650-23-5, 400 PPM IN DIET FOR 52 WK (STUDY DURATION: 52 WK), Species: RAT, Strain/Sex: F344/MALE, Target Tissue: Type of Lesion: LYMPHATIC SYSTEM: LYMPHOMA, Dose [Carcinogen]: 400 PPM IN DIET FOR 10 WK THEN 200 PPM TO WK 14 FOLLOWED BY 100 PPM FOR DURATION OF STUDY): 75%, 0%, 100%, not calculated
- tumour outcome (control, treated, inhibition, significance) (Carcinogen: 4-(METHYLNITROSAMINO)-1-(3-PYRIDYL)-1-BUTANONE, 64091-91-4, 0.25 G/KG DIET (EFFECTIVE DOSE 3.31 UMOL/D) BEGINNING 2 WK PRIOR TO CARCINOGEN TREATMENT AND CONTINUING FOR DURATION, Species: MOUSE, Strain/Sex: STRAIN-A/FEMALE, Target Tissue: Type of Lesion: LUNG: TUMORS, Dose [Carcinogen]: 9.0-9.2 MG/MOUSE (TOTAL DOSE) IN DRINKING WATER ADMINISTERED OVER 7 WK): 28/28 (100%), 25/25 (100%), 0%, not significant
- tumour outcome (control, treated, inhibition, significance) (Carcinogen: AZOXYMETHANE, 25843-45-2, 200 PPM IN DIET 7 WK PRIOR TO CARCINOGEN TREATMENT AND CONTINUING FOR STUDY DURATION (STUDY DURATION: 59 WK), Species: RAT, Strain/Sex: F344/MALE, Target Tissue: Type of Lesion: COLON: ADENOCARCINOMA, Dose [Carcinogen]: 15 MG/KG 1/WK FOR 2 WK): 72%, 47%, 35%, p<0.05
- tumour outcome (control, treated, inhibition, significance) (Carcinogen: AZOXYMETHANE, 25843-45-2, 200 PPM IN DIET 7 WK PRIOR TO CARCINOGEN TREATMENT AND CONTINUING FOR STUDY DURATION (STUDY DURATION: 59 WK), Species: RAT, Strain/Sex: F344/MALE, Target Tissue: Type of Lesion: COLON: ADENOMA, Dose [Carcinogen]: 15 MG/KG 1/WK FOR 2 WK): 14%, 6%, 57%, p<0.05
- tumour outcome (control, treated, inhibition, significance) (Carcinogen: AZOXYMETHANE, 25843-45-2, 200 PPM IN DIET 7 WK PRIOR TO CARCINOGEN TREATMENT AND CONTINUING FOR STUDY DURATION (STUDY DURATION: 59 WK), Species: RAT, Strain/Sex: F344/MALE, Target Tissue: Type of Lesion: SMALL INTESTINE: ADENOCARCINOMA, Dose [Carcinogen]: 15 MG/KG 1/WK FOR 2 WK): 50%, 16%, 68%, p<0.001
- tumour outcome (control, treated, inhibition, significance) (Carcinogen: AZOXYMETHANE, 25843-45-2, 200 PPM IN DIET BEGINNING 2 WK PRIOR TO CARCINOGEN TREATMENT AND CONTINUING FOR 3 D POST LAST CARCINOGEN DOSE FOLLOWE, Species: RAT, Strain/Sex: F344/MALE, Target Tissue: Type of Lesion: COLON: INVASIVE ADENOCARCINOMA, Dose [Carcinogen]: 15 MG/KG 1/WK FOR 2 WK): 33%, 3%, 91%, p<0.001
- tumour outcome (control, treated, inhibition, significance) (Carcinogen: AZOXYMETHANE, 25843-45-2, 200 PPM IN DIET BEGINNING 2 WK PRIOR TO CARCINOGEN TREATMENT AND CONTINUING FOR 3 D POST LAST CARCINOGEN DOSE FOLLOWE, Species: RAT, Strain/Sex: F344/MALE, Target Tissue: Type of Lesion: COLON: NONINVASIVE ADENOCARCINOMA, Dose [Carcinogen]: 15 MG/KG 1/WK FOR 2 WK): 53%, 43%, 19%, not significant
- tumour outcome (control, treated, inhibition, significance) (Carcinogen: AZOXYMETHANE, 25843-45-2, 200 PPM IN DIET BEGINNING 2 WK PRIOR TO CARCINOGEN TREATMENT AND CONTINUING FOR 3 D POST LAST CARCINOGEN DOSE FOLLOWE, Species: RAT, Strain/Sex: F344/MALE, Target Tissue: Type of Lesion: SMALL INTESTINE: INVASIVE ADENOCARCINOMA, Dose [Carcinogen]: 15 MG/KG 1/WK FOR 2 WK): 22%, 7%, 68%, p<0.05
- tumour outcome (control, treated, inhibition, significance) (Carcinogen: AZOXYMETHANE, 25843-45-2, 200 PPM IN DIET BEGINNING 2 WK PRIOR TO CARCINOGEN TREATMENT AND CONTINUING FOR 3 D POST LAST CARCINOGEN DOSE FOLLOWE, Species: RAT, Strain/Sex: F344/MALE, Target Tissue: Type of Lesion: SMALL INTESTINE: NONINVASIVE ADENOCARCINOMA, Dose [Carcinogen]: 15 MG/KG 1/WK FOR 2 WK): 6%, 3%, 50%, not significant
- tumour outcome (control, treated, inhibition, significance) (Carcinogen: AZOXYMETHANE, 25843-45-2, 200 PPM IN DIET BEGINNING 3 D POST LAST CARCINOGEN DOSE AND CONTINUING FOR DURATION OF STUDY (STUDY DURATION: 56 WK), Species: RAT, Strain/Sex: F344/MALE, Target Tissue: Type of Lesion: COLON: INVASIVE ADENOCARCINOMA, Dose [Carcinogen]: 15 MG/KG 1/WK FOR 2 WK): 33%, 0%, 100%, p<0.001
- tumour outcome (control, treated, inhibition, significance) (Carcinogen: AZOXYMETHANE, 25843-45-2, 200 PPM IN DIET BEGINNING 3 D POST LAST CARCINOGEN DOSE AND CONTINUING FOR DURATION OF STUDY (STUDY DURATION: 56 WK), Species: RAT, Strain/Sex: F344/MALE, Target Tissue: Type of Lesion: COLON: NONINVASIVE ADENOCARCINOMA, Dose [Carcinogen]: 15 MG/KG 1/WK FOR 2 WK): 53%, 73%, -38%, not significant
- tumour outcome (control, treated, inhibition, significance) (Carcinogen: AZOXYMETHANE, 25843-45-2, 200 PPM IN DIET BEGINNING 3 D POST LAST CARCINOGEN DOSE AND CONTINUING FOR DURATION OF STUDY (STUDY DURATION: 56 WK), Species: RAT, Strain/Sex: F344/MALE, Target Tissue: Type of Lesion: SMALL INTESTINE: INVASIVE ADENOCARCINOMA, Dose [Carcinogen]: 15 MG/KG 1/WK FOR 2 WK): 22%, 20%, 9%, not significant
- tumour outcome (control, treated, inhibition, significance) (Carcinogen: AZOXYMETHANE, 25843-45-2, 200 PPM IN DIET BEGINNING 3 D POST LAST CARCINOGEN DOSE AND CONTINUING FOR DURATION OF STUDY (STUDY DURATION: 56 WK), Species: RAT, Strain/Sex: F344/MALE, Target Tissue: Type of Lesion: SMALL INTESTINE: NONINVASIVE ADENOCARCINOMA, Dose [Carcinogen]: 15 MG/KG 1/WK FOR 2 WK): 6%, 3%, 50%, not significant
- tumour outcome (control, treated, inhibition, significance) (Carcinogen: AZOXYMETHANE, 25843-45-2, 200 PPM IN DIET FOR 56 WK BEGINNING 2 WK PRIOR TO CARCINOGEN TREATMENT (STUDY DURATION: 56 WK), Species: RAT, Strain/Sex: F344/MALE, Target Tissue: Type of Lesion: COLON (DISTAL): TUMOR, Dose [Carcinogen]: 15 MG/KG 1/WK FOR 2 WK): 47%, 28%, 40%, not significant
- tumour outcome (control, treated, inhibition, significance) (Carcinogen: AZOXYMETHANE, 25843-45-2, 200 PPM IN DIET FOR 56 WK BEGINNING 2 WK PRIOR TO CARCINOGEN TREATMENT (STUDY DURATION: 56 WK), Species: RAT, Strain/Sex: F344/MALE, Target Tissue: Type of Lesion: COLON (PROXIMAL): TUMOR, Dose [Carcinogen]: 15 MG/KG 1/WK FOR 2 WK): 39%, 30%, 23%, not significant
